This series is described as follows: Human HepG2 cell viability assay in 384 well format. The series is classed as toxicity, cell-based. Also noted: dose 125 nL, time 70.5 hour; cytotoxicity at 70.5 h: concentration not given beside the values. To be noted: HepG2 cells, read-out: Inhibition.
`CCOCCC(=O)NCc1ccnc(NC2CC2)c1`: the cytotoxicity at 70.5 h was -3.85%.

Consider `CSc1ncccc1C(=O)N(C)CCc1scnc1C`, for which the cytotoxicity at 70.5 h is -8.88%.

Take `CC(C)c1cc(C2CCCN2Cc2nc(-c3ccco3)no2)no1` (configuration not stated): the cytotoxicity at 70.5 h is -2.57%.

For the molecule `CC(C)c1n[nH]c(C(=O)NC(C)c2ccncc2)c1Br` (configuration not stated), the cytotoxicity at 70.5 h is -2.63%.

Regarding `Cc1cnn(CC(=O)N2CCC3(CCC(=O)N(C4CCCC4)C3)CC2)c1`, the cytotoxicity at 70.5 h was -2.24%.

Turning to `COCCN1CCCC(c2nccnc2-c2cccc(Cl)c2)C1` (configuration not stated), the cytotoxicity at 70.5 h came to 21%.

Regarding `CN(C(=O)C1CSCN1S(=O)(=O)c1ccc(F)cc1)C1CC1` (configuration not stated), the cytotoxicity at 70.5 h was -9.65%.

Turning to `CCCC1c2cccn2CCN1C(=O)c1cc(CC)no1` (configuration not stated), the cytotoxicity at 70.5 h is -2.22%.

As to `Cc1nc([C@H]2C[C@H]3CN(C(=O)c4ccoc4C)CC[C@@H]3O2)no1`, the cytotoxicity at 70.5 h was -7.31%.

On to `Cc1cc(-n2cncn2)n2ncnc2n1`, for which the cytotoxicity at 70.5 h is -2.11%.

For `CCc1ccc(CCC(=O)NCc2nnc[nH]2)cc1`, the cytotoxicity at 70.5 h is -19.3%.

For the molecule `CCOC(=O)[C@H]1[C@@H](O)C(=O)N(C)C12CCN(C(=O)CC(C)(C)C)CC2`, the cytotoxicity at 70.5 h is -6.45%.

Consider `CC1CCCN1Cc1cccc(C(=O)Nc2ccc3[nH]c(=O)oc3c2)c1` (configuration not stated), for which the cytotoxicity at 70.5 h stood at 30.6%.

For the molecule `Clc1ccc(N2CCC(OCC3CCCCO3)CC2)nc1` (configuration not stated), the cytotoxicity at 70.5 h was -1.36%.

Take `CCCn1[nH]cc/c1=N\C(=O)CN1CCc2c(nc(C(C)C)n2C)C1`: the cytotoxicity at 70.5 h was found to be 18%.

Turning to `O=C(O)C(c1ccc2c(c1)OCO2)N1CCC(C(=O)N2CCCC2)CC1` (configuration not stated), the cytotoxicity at 70.5 h is -2.61%.

Turning to `Cc1noc(C)c1CN1C[C@@H]2COC[C@@H](CC(=O)N3CCCO3)[C@@H]2C1`, the cytotoxicity at 70.5 h was -6.49%.

`Cc1noc(C)c1CN(C)C(=O)NC1CCN(c2ncccn2)CC1`: the cytotoxicity at 70.5 h came to 35.3%.

As for `CS(=O)(=O)N1CCC(Oc2ccc(C(=O)N3CCSCC3)cc2Cl)CC1`, the cytotoxicity at 70.5 h was 0.994%.

Regarding `Cc1cc(NC(=O)Cn2ccc(=O)c3ccccc32)[nH]n1`, the cytotoxicity at 70.5 h is -3.31%.

As to `Cc1ccsc1CNC(=O)c1ccc2c(c1)CCC(=O)N2`, the cytotoxicity at 70.5 h came out at 16.1%.

For the molecule `CCc1nc2n(n1)CCCC2NC(=O)Nc1cccc(F)c1F` (configuration not stated), the cytotoxicity at 70.5 h is 4.24%.

For `COCCN(Cc1coc(-c2ccc(OC)cc2)n1)C1CC1`, the cytotoxicity at 70.5 h is -1.17%.

Turning to `CC(=O)N1CCCCCC1C1CCN(Cc2nc(C3CC3)no2)CC1` (configuration not stated), the cytotoxicity at 70.5 h was 0.683%.

`O[C@@H]1C[C@@](CNCc2ccccn2)(COc2cccnc2)C[C@@H]1O`: the cytotoxicity at 70.5 h is -8.64%.

As to `O=c1[nH]ccn1CCCN1CC=C(c2cnn(-c3ccccc3)c2)CC1`, the cytotoxicity at 70.5 h is -2.11%.

For `CC1(c2ncc(CN(CC(=O)O)Cc3ccccc3)cn2)CCCCO1` (configuration not stated), the cytotoxicity at 70.5 h was -7.96%.

Take `O=C(NCCCn1cncn1)c1ccc(-c2ccccc2)[nH]c1=O`: the cytotoxicity at 70.5 h was -11.4%.

Take `Cc1nn(C)c(C)c1CN(C)C(=O)c1cc(NC(=O)C2CC2)n(C)n1`: the cytotoxicity at 70.5 h was -8.63%.

On to `CCNC(=O)CN(CC)Cc1nc2c(F)cccc2n1CC`, for which the cytotoxicity at 70.5 h turned out to be 21.7%.

With `N#CC1(NC(=O)CN2CCC(c3ccnn3CCO)CC2)CCCC1`, the cytotoxicity at 70.5 h was -11.9%.

For the molecule `Cc1cc(C)n(CCNC(=O)c2cc(C3CC3)n[nH]2)n1`, the cytotoxicity at 70.5 h was -4.88%.

Take `Cc1ccccc1CC(=O)NCCNc1nccc(C(F)(F)F)n1`: the cytotoxicity at 70.5 h is -8.29%.

With `O=C(NCC1CC1)[C@H]1C[C@@H]2CCN(CCc3ccccc3)C[C@H]2O1`, the cytotoxicity at 70.5 h was -4.59%.

Take `Cc1noc(C)c1CN1CCO[C@H]2CN(Cc3ccc(F)cc3)C[C@H]21`: the cytotoxicity at 70.5 h was found to be 0.623%.

As for `CCN1C(=O)CC(c2cnn(C)c2)C12CCN(C(=O)c1ccc[nH]1)CC2` (configuration not stated), the cytotoxicity at 70.5 h was -1.7%.

`CN1CCC(c2nnc3ccc(C(=O)NC4CCCC4)cn23)C1` (configuration not stated): the cytotoxicity at 70.5 h is 15%.

Take `O=S(=O)(c1cnccc1N1CCN(CCO)CC1)N1CCOCC1`: the cytotoxicity at 70.5 h worked out at 11.8%.

Consider `COc1cc2c(cc1CNC(=O)C(C)n1ccnc1C(C)C)CCC2` (configuration not stated), for which the cytotoxicity at 70.5 h is -11.2%.

Take `O=C(C1CC1)N1CCCC1C1CCN(Cc2ccccc2)CC1` (configuration not stated): the cytotoxicity at 70.5 h was determined as 1.42%.

Take `COC(=O)CCCNC(=O)N1CCc2c([nH]c3ccc(Cl)cc23)C1`: the cytotoxicity at 70.5 h is -6.07%.

As for `CC(=O)N1C[C@H]2C3(CCN(S(C)(=O)=O)CC3)CC[C@@]2(C(=O)N(C)C)C1`, the cytotoxicity at 70.5 h was -8.99%.

On to `COc1ccc(NC(=O)CCN2CC=C(c3cnn(C)c3)CC2)c(C)c1`, for which the cytotoxicity at 70.5 h was 2.12%.

As to `CN(C)c1nccnc1C1CCCN(c2cnccn2)C1` (configuration not stated), the cytotoxicity at 70.5 h is -3.09%.

As to `CCOC(=O)NCCC(=O)NC(C)(C)c1ccc2c(c1)OCCO2`, the cytotoxicity at 70.5 h was -6.26%.

In the case of `Cc1cccc(N2CC3(CCN(c4nncs4)C3)CC2=O)c1` (configuration not stated), the cytotoxicity at 70.5 h is -4.91%.

Regarding `CC(=O)N1CCc2c(nc(N(C)C)nc2NCCCn2ccnc2)C1`, the cytotoxicity at 70.5 h is -8.48%.

With `CN(CCO)C(=O)Nc1ccn(-c2cccc(C(F)(F)F)c2)n1`, the cytotoxicity at 70.5 h is -2.71%.

As for `COCCn1ccc2c(C(=O)Nc3nc4c(s3)CCC4)cccc21`, the cytotoxicity at 70.5 h was -1.37%.

Take `CN(Cc1ccncn1)C(=O)C1(Oc2ccc(Cl)cc2)CCNCC1`: the cytotoxicity at 70.5 h is -4.8%.

As to `Cc1ccc(CN2C[C@@H]3[C@@H](C(=O)N4CCCC4)CCS(=O)(=O)[C@@H]3C2)cc1`, the cytotoxicity at 70.5 h is -1.09%.

Regarding `Cc1nc2c(N3CCN(CCO)CC3)nc(N)nc2n1C`, the cytotoxicity at 70.5 h is 0.799%.

`COC(=O)c1ccc(NC(=O)CN2CCCCC2C2OCCO2)cc1` (configuration not stated): the cytotoxicity at 70.5 h worked out at 0.785%.

`COc1ccc2c(c1)CCCN(C(=O)NCC1CCCO1)C2` (configuration not stated): the cytotoxicity at 70.5 h was -8.68%.

Turning to `CN1CC(=O)N(c2cnn(C)c2)CC12CCN(CC1CC1)C2` (configuration not stated), the cytotoxicity at 70.5 h was -2.29%.

As to `O=C(CN1CCCC1c1nc2cc(F)ccc2[nH]1)NCc1ccccn1` (configuration not stated), the cytotoxicity at 70.5 h was -3.28%.

Turning to `Cc1cnc(N2CCC3(CC2)COCCN(C(C)C)C3)nc1`, the cytotoxicity at 70.5 h is -8.08%.

In the case of `Cc1csc(CCNC(=O)Nc2cc(C(F)(F)F)c[nH]c2=O)n1`, the cytotoxicity at 70.5 h is -1.34%.

With `Cc1ccc2c(c1)C1(CCN(C(N)=O)CC1)CN2CC1CC1`, the cytotoxicity at 70.5 h is -1.07%.

For `O=C1COC2(CCN(C(=O)c3ccoc3)CC2)CN1Cc1cccnc1`, the cytotoxicity at 70.5 h was -6.92%.

`CNc1cc(CNC(=O)c2ccccc2)nc(-c2ccncc2)n1`: the cytotoxicity at 70.5 h came out at 11.4%.

With `COc1ccc(CC(=O)N2CCCC2Cn2cc(C)cn2)c(OC)c1` (configuration not stated), the cytotoxicity at 70.5 h is -0.475%.

With `CN(Cc1cc2n(n1)CCNC2)Cc1n[nH]c2c1CCCCC2`, the cytotoxicity at 70.5 h was -1.36%.

`O=C(Cn1cnc2cc3c(cc21)OCCCO3)NC1CCCCC1`: the cytotoxicity at 70.5 h was -1.58%.

Regarding `CC(C(N)=O)N(C)CCCc1cc(-c2ccccc2)no1` (configuration not stated), the cytotoxicity at 70.5 h is -2.88%.

With `Cn1cc(-c2ncc(C(=O)NCCCn3ccccc3=O)s2)cn1`, the cytotoxicity at 70.5 h was -10.1%.

Take `CCc1cc(NCc2cc(CC(C)C)on2)n2nccc2n1`: the cytotoxicity at 70.5 h was -2.02%.

For `COc1cccc(CCC2CCCCN2)c1` (configuration not stated), the cytotoxicity at 70.5 h was 0.0655%.

As for `CC(C)(C)NC(=O)NC(=O)CNC(C)(C)c1ccc2c(c1)OCCO2`, the cytotoxicity at 70.5 h is -16.2%.

Take `Cn1c(CN2CCN(CC3CCCO3)CC2)nc2ccccc21` (configuration not stated): the cytotoxicity at 70.5 h was -9.16%.

With `Cc1nc(CN2CCC2(CCCc2ccccn2)C(=O)N(C)C)co1` (configuration not stated), the cytotoxicity at 70.5 h is -5.18%.

Consider `COc1cccc(CN2CCN(c3noc(C(C)C)n3)CC2)c1F`, for which the cytotoxicity at 70.5 h is 1.87%.

Consider `O=C(c1cc(-n2cccn2)ccc1Cl)N1CCCC(N2CCCC2)C1` (configuration not stated), for which the cytotoxicity at 70.5 h was -5.55%.

Take `CCNC(c1cccnc1)c1ccc(F)c(C)c1` (configuration not stated): the cytotoxicity at 70.5 h turned out to be 1.17%.

For the molecule `CN1CC(Oc2ccccc2)=NC(SCC(=O)Nc2ccc(Cl)cc2)=N1`, the cytotoxicity at 70.5 h stood at 0.871%.

`Cc1n[nH]c(=O)c2c(NC(=O)CN3CCCC(C(F)(F)F)C3)oc(C)c12` (configuration not stated): the cytotoxicity at 70.5 h was 15.7%.

Regarding `Cc1nn(-c2ccccc2)c2nc(C(C)(C)CN3CCN(C)CC3)[nH]c12`, the cytotoxicity at 70.5 h was -1.61%.

Regarding `CN1C(=N)NC(=O)/C1=C/c1ccc(-c2ccc(Br)cc2)o1`, the cytotoxicity at 70.5 h was found to be 1.84%.

As to `O=C(CC1CCc2ccccc21)NCCSc1ccccn1` (configuration not stated), the cytotoxicity at 70.5 h is 11.8%.

For `O=c1[nH][nH]cc1-c1ccnc(NCCc2cccnc2)n1`, the cytotoxicity at 70.5 h was -2.07%.

On to `CC(=O)Nc1ccc(C(=O)Nc2cnc3n2CCCC3)c(C)c1`, for which the cytotoxicity at 70.5 h is -1.77%.

With `COCC(=O)N1CCC(c2cncc(-c3cccc(F)c3)n2)CC1`, the cytotoxicity at 70.5 h is -7.23%.

As to `CC(C)NC(=O)C1CCc2nnc(CNC(=O)c3cccnc3)n21` (configuration not stated), the cytotoxicity at 70.5 h was -2%.

`CCOC(=O)c1c(NC(=O)C2CCN(C(C)=O)CC2)sc(C)c1CC`: the cytotoxicity at 70.5 h was -6.22%.

Take `Cc1ccc(N2CC[C@@H]3CN(Cc4cccc(C)n4)C[C@@H]3C2)nn1`: the cytotoxicity at 70.5 h was -4.34%.

Regarding `CN(C)Cc1nc2c(o1)CN(C(=O)NCc1cccc(F)c1)C2`, the cytotoxicity at 70.5 h was -5.42%.

On to `CCOCC1CN(Cc2ccoc2)Cc2ncn(CC3CC3)c21` (configuration not stated), for which the cytotoxicity at 70.5 h came to 5.39%.

Turning to `CN(C)S(=O)(=O)N1CCOC(c2cccc(-c3cncnc3)n2)C1` (configuration not stated), the cytotoxicity at 70.5 h was -10.8%.

Regarding `COc1ccccc1-c1csc(-c2cccc(C(=O)O)c2)n1`, the cytotoxicity at 70.5 h is -4.2%.

With `Cn1ncc2c(N3CCC(CC(=O)N4CCCC4)CC3)ncnc21`, the cytotoxicity at 70.5 h is -4.03%.

For `COCC(=O)NC[C@H]1CC[C@H](c2nnc(-c3ccncc3)o2)CC1`, the cytotoxicity at 70.5 h turned out to be 15.8%.

On to `CC(C)NC(=O)N1CCN(C(=O)C(C)C)CC2(CC(=O)N(C)C2)C1` (configuration not stated), for which the cytotoxicity at 70.5 h is 7.84%.

For the molecule `O=C(CN1CC(c2ccccc2)CC1=O)NCc1cc2n(n1)CCNC2` (configuration not stated), the cytotoxicity at 70.5 h was -8.02%.

As for `CCc1nccn1C1CCCN(C(=O)CCc2nccs2)C1` (configuration not stated), the cytotoxicity at 70.5 h was -15.8%.

In the case of `Cc1cc(C(=O)N2CCC3(CCCN(CC4CC4)C3=O)C2)c(C)n1C` (configuration not stated), the cytotoxicity at 70.5 h is -2.9%.

Consider `CC(C)NC(=O)[C@@H]1C[C@@H](N)CN1C(=O)CCSCc1ccccc1`, for which the cytotoxicity at 70.5 h turned out to be 1.3%.

Consider `Cc1nn(CC(=O)N2CCC(Nc3cccnn3)CC2)c(C)c1Cl`, for which the cytotoxicity at 70.5 h came out at 28.5%.

The values are drawn from ChEMBL document CHEMBL3507680, “University of Dundee, Gates Library screen for HepG2 cell viability”.
